Results as given in patent publication US8691805B2, “Azetidinyl diamides as monoacylglycerol lipase inhibitors” (Janssen Pharmaceutica NV, priority 2009, dated 2014).

Tests used:
[1] = target: T1, MGL in rat brain homogenate (Rattus norvegicus, UniProt Q8R431); test: 2-AG accumulation assay in rat brain homogenate; assay type: biochemical; conditions: 2-AG accumulation as percent of vehicle; for Rat Brain 2AG % VehCntrl (%) @10 μM: compound 10 μM
T1 construct: one g rat brain was homogenized; from tissue; host or cells: rat brain homogenate
T1 sequence (Q8R431 1-303): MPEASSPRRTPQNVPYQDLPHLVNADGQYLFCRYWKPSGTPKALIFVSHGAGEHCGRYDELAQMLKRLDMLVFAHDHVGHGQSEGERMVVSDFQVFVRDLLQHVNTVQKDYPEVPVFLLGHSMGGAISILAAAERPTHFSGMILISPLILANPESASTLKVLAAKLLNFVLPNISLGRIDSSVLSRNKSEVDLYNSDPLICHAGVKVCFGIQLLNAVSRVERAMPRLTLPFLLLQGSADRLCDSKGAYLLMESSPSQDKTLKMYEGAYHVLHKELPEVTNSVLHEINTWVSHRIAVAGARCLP

mutant MGL = target: T2, mutant MGL (Homo sapiens, UniProt Q99685, L169S/L176S); test: MGL ThermoFluor assay - mutant; conditions: read-out: MGL mutant ThermoFluor Kd, ThermoFluor thermal shift
T2 sequence (Q99685 1-303 L169S/L176S): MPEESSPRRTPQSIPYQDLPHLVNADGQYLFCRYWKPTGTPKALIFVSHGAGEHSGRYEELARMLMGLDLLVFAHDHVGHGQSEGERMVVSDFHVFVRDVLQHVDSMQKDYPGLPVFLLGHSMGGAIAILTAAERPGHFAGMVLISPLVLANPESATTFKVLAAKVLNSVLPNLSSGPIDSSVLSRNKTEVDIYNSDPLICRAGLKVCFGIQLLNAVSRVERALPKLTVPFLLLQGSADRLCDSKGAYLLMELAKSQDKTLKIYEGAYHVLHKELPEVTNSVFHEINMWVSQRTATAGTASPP
Protocol: The ThermoFluor (TF) assay is a 384-well plate-based binding assay that measures thermal stability of proteins^1,2. […] TF dye used in all experiments was 1,8-ANS (Invitrogen: A-47). Final TF assay conditions used for MGL studies were 0.07 mg/ml of mutant MGL, 100 μM ANS, 200 mM NaCl, 0.001% Tween-20 in 50 mM PIPES (pH=7.0).
Screening compound plates contained 100% DMSO compound solutions at a single concentration. […] Columns 12 and 24 were used as DMSO reference and contained no compound. […] Following compound dispension, protein and dye solutions were added to achieve the final assay volume of 3 μL.
Bar-coded assay plates were robotically loaded onto a thermostatically controlled PCR-type thermal block and then heated from 40 to 90° C. degrees at a ramp-rate of 1° C./min for all experiments. Fluorescence was measured by continuous illumination with UV light (Hamamatsu LC6), supplied via fiber optics and filtered through a band-pass filter (380-400 nm; >6 OD cutoff). Fluorescence emission of the entire 384-well plate was detected by measuring light intensity using a CCD camera (Sensys, Roper Scientific) filtered to detect 500±25 nm, resulting in simultaneous and independent readings of all 384 wells. […]

[2] = test system: CFA-induced paw radiant heat hypersensitivity in rats; test: CFA-induced paw radiant heat hypersensitivity; assay type: in vivo; conditions: rat, 30 mg/kg p.o., HPβCD, group mean values, last time point 180 or 300 min
Protocol: Each rat was placed in a test chamber on a warm glass surface and allowed to acclimate for approximately 10 min. A radiant thermal stimulus (beam of light) was then focused through the glass onto the plantar surface of each hind paw in turn. The thermal stimulus was automatically shut off by a photoelectric relay when the paw was moved or when the cut-off time was reached (20 sec for radiant heat at ˜5 amps). An initial (baseline) response latency to the thermal stimulus was recorded for each animal prior to the injection of complete Freund's adjuvant (CFA). 24 h following intraplantar CFA injection, the response latency of the animal to the thermal stimulus was then re-evaluated and compared to the animal's baseline response time. […] Post-compound treatment withdrawal latencies were assessed at fixed time intervals, typically 30, 60, 120, 180, and 300 min.
The percent reversal (% R) of hypersensitivity was calculated in one of two different ways: 1) using group mean values or 2) using individual animal values. […]
Method 1. For all compounds, the % R of hypersensitivity was calculated using the mean value for groups of animals at each time point according to the following formula: % reversal=[(group treatment response−group CFA response)/(group baseline response−group CFA response)]×100 Results are given for the maximum % reversal observed for each compound at any time point tested. […]

[3] = test system: murine model of acute inflammation; conditions: Comelli et al. 2007; cited from earlier work

Row | SMILES | Rat Brain 2AG % VehCntrl (%) @10 μM [1] [%] | Method 1: peak % reversal [2] [%] | other results
1 | O=C(c1nccs1)N1CCN(C2CN(C(=O)[C@@H]3C[C@H]3c3ccccc3Cl)C2)CC1 (racemic) [Cpd 642] | – | – | Rat Brain 2AG % VehCntrl (%) @1 μM ([1]; compound 1 μM): 170%; Kd (mutant MGL): 499 nM
2 | O=C(c1ccc(-c2ccc(O)cc2)cc1)N1CC(N2CCN(C(=O)c3nccs3)CC2)C1 [Cpd 211, 4′-({3-[(1,3-Thiazol-2-ylcarbonyl)piperazin-1-yl]azetidin-1-yl}carbonyl)biphenyl-4-ol] | 725 | – | –
3 | COc1ccc(-c2ccc(C(=O)N3CC(N4CCN(C(=O)c5nccs5)CC4)C3)cc2)cc1C=O [Cpd 216, 4-Methoxy-4′-({3-[(1,3-thiazol-2-ylcarbonyl)piperazin-1-yl]azetidin-1-yl}carbonyl)biphenyl-3-carbaldehyde] | 625 | – | –
4 | O=C(c1ccc(-c2cccc(C(F)(F)F)c2)c(Cl)c1)N1CC(N2CCN(C(=O)c3cscn3)CC2)C1 [Cpd 1102] | – | 38 | –
5 | O=C(c1ccc2c(ccn2-c2ccc(C(F)(F)F)cc2)c1)N1CC(N2CCN(C(=O)c3cscn3)CC2)C1 [Cpd 1359, 5-({3-[4-(1,3-Thiazol-4-ylcarbonyl)piperazin-1-yl]azetidin-1-yl}carbonyl)-1-[4-(trifruoromethyl)phenyl]-1 H-indole] | – | 5.1 | –
6 | O=C(Nc1cccc(-c2ccccc2)c1)OC1CCCCC1 [URB602] | – | – | antinociceptive effect [3]: showed an antinociceptive effect
